Assays:
[1] = test system: field corn (Zea mays L., var. Dekalb 535, CORN); test: Post-emerge greenhouse screening, crop safety / corn selectivity (phytotoxicity rating); assay type: in vivo; settings: 14 days after application
Outline: (§1)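 Pre-emerge: seeds sown 1 day before spray; acetone solutions, 15–1000 g ai/ha, track sprayer; soil watered after application, then bottom-watered. Post-emerge: plants at 2-3 leaf stage (sown 8-21 days prior), 0.25% v/v non-ionic surfactant added, bottom-watered only. Rated 0-100 at 14 DAA.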

[2] = as above; assay type: in vivo, Zea mays L.; settings: Zea mays (field corn), in vivo, 62.5 g ai/ha
Outline: as §1

[3] = test system: field corn (Zea mays L., var. Dekalb 535, CORN); test: Pre-emerge greenhouse screening, crop safety (phytotoxicity rating); assay type: in vivo; settings: 14 days after application
Outline: as §1

[4] = test system: soybean (Glycine max L., var. Pella 86, SOY); test: as above; assay type: in vivo; settings: 14 days after application
Outline: as §1

[5] = test system: upland rice (Oryza sp., var.Tebonnet, RICE); test: as above; assay type: in vivo; settings: 14 days after application
Outline: as §1

[6] = test system: common ragweed (Ambrosia artemisiifolia L., AMBEL); test: Pre-emerge greenhouse herbicide activity screening, phytotoxicity rating; assay type: in vivo; settings: 14 days after application
Outline: as §1

[7] = test system: sicklepod (Cassia obtusifolia, CASOB); test: as above; assay type: in vivo; settings: 14 days after application
Outline: as §1

[8] = test system: ivyleaf morningglory (Ipomoea hederacea, IPOHE); test: as above; assay type: in vivo; settings: 14 days after application
Outline: as §1

[9] = test system: lambsquarters (Chenopodium album, CHEAL); test: as above; assay type: in vivo; settings: 14 days after application
Outline: as §1

[10] = test system: green foxtail (Setaria viridis, SETVI); test: as above; assay type: in vivo; settings: 14 days after application
Outline: as §1

[11] = test system: redroot pigweed (Amaranthus retroflexus, AMARE); test: as above; assay type: in vivo; settings: 14 days after application
Outline: as §1

[12] = test system: velvetleaf (Abutilon theophrasti, ABUTH); test: as above; assay type: in vivo; settings: 14 days after application
Outline: as §1

[13] = test system: large crabgrass (Digitaria sanguinalis, DIGSA); test: as above; assay type: in vivo; settings: 14 days after application
Outline: as §1

[14] = test system: johnsongrass (Sorghum halepense, SORHA); test: as above; assay type: in vivo; settings: 14 days after application
Outline: as §1

[15] = test system: barnyardgrass (Echinochloa crus-galli, ECHCG); test: as above; assay type: in vivo; settings: 14 days after application
Outline: as §1

[16] = test system: soybean (Glycine max L., var. Pella 86, SOY); test: Post-emerge greenhouse screening, crop safety (phytotoxicity rating); assay type: in vivo; settings: 14 days after application
Outline: as §1

[17] = test system: upland rice (Oryza sp., var.Tebonnet, RICE); test: as above; assay type: in vivo; settings: 14 days after application
Outline: as §1

[18] = test system: common ragweed (Ambrosia artemisiifolia L., AMBEL); test: Post-emerge greenhouse herbicide activity screening, phytotoxicity rating; assay type: in vivo
Outline: as §1

[19] = test system: sicklepod (Cassia obtusifolia, CASOB); test: as above; assay type: in vivo
Outline: as §1

[20] = test system: ivyleaf morningglory (Ipomoea hederacea, IPOHE); test: as above; assay type: in vivo; settings: 14 days after application
Outline: as §1

[21] = test system: lambsquarters (Chenopodium album, CHEAL); test: as above; assay type: in vivo
Outline: as §1

[22] = test system: green foxtail (Setaria viridis, SETVI); test: as above; assay type: in vivo
Outline: as §1

[23] = test system: redroot pigweed (Amaranthus retroflexus, AMARE); test: as above; assay type: in vivo
Outline: as §1

[24] = test system: velvetleaf (Abutilon theophrasti, ABUTH); test: as above; assay type: in vivo; settings: 14 days after application
Outline: as §1

[25] = test system: large crabgrass (Digitaria sanguinalis, DIGSA); test: as above; assay type: in vivo; settings: 14 days after application
Outline: as §1

[26] = test system: johnsongrass (Sorghum halepense, SORHA); test: as above; assay type: in vivo; settings: 14 days after application
Outline: as §1

[27] = test system: barnyardgrass (Echinochloa crus-galli, ECHCG); test: as above; assay type: in vivo; settings: 14 days after application
Outline: as §1

[28] = 125 g ai/ha, 14 days after application
[29] = 250 g ai/ha, 14 days after application

Cn1nc(-c2cc(Oc3ncccn3)c(Cl)cc2F)c(Cl)c1[S+]([O-])C(F)F (stereo not drawn) [Compound 5-1]
95: SETVI phytotoxicity rating (0-100 scale) [22, 28] | SETVI phytotoxicity rating (0-100 scale) [22, 29]
40: CORN crop damage, phytotoxicity rating (0-100 scale) ([3]; 125 g ai/ha)
75: AMBEL phytotoxicity rating (0-100 scale) ([6]; 125 g ai/ha) | AMBEL phytotoxicity rating (0-100 scale) [18, 29] | SORHA phytotoxicity rating (0-100 scale) ([26]; 125 g ai/ha) | SORHA phytotoxicity rating (0-100 scale) ([26]; 250 g ai/ha) | ECHCG phytotoxicity rating (0-100 scale) ([27]; 125 g ai/ha)
98: AMARE phytotoxicity rating (0-100 scale) ([23]; 31.3 g ai/ha)
90: CASOB phytotoxicity rating (0-100 scale) ([7]; 250 g ai/ha)
85: CASOB phytotoxicity rating (0-100 scale) ([19]; 62.5 g ai/ha)
99: IPOHE phytotoxicity rating (0-100 scale) ([8]; 125 g ai/ha) | ABUTH phytotoxicity rating (0-100 scale) ([12]; 125 g ai/ha) | CASOB phytotoxicity rating (0-100 scale) [19, 28]
100: AMBEL phytotoxicity rating (0-100 scale) ([6]; 250 g ai/ha) | IPOHE phytotoxicity rating (0-100 scale) ([8]; 250 g ai/ha) | CHEAL phytotoxicity rating (0-100 scale) ([9]; 125 g ai/ha) | CHEAL phytotoxicity rating (0-100 scale) ([9]; 250 g ai/ha) | SETVI phytotoxicity rating (0-100 scale) ([10]; 125 g ai/ha) | SETVI phytotoxicity rating (0-100 scale) ([10]; 250 g ai/ha) | AMARE phytotoxicity rating (0-100 scale) ([11]; 125 g ai/ha) | AMARE phytotoxicity rating (0-100 scale) ([11]; 250 g ai/ha) | ABUTH phytotoxicity rating (0-100 scale) ([12]; 250 g ai/ha) | DIGSA phytotoxicity rating (0-100 scale) ([13]; 125 g ai/ha) | DIGSA phytotoxicity rating (0-100 scale) ([13]; 250 g ai/ha) | SORHA phytotoxicity rating (0-100 scale) ([14]; 125 g ai/ha) | SORHA phytotoxicity rating (0-100 scale) ([14]; 250 g ai/ha) | ECHCG phytotoxicity rating (0-100 scale) ([15]; 125 g ai/ha) | ECHCG phytotoxicity rating (0-100 scale) ([15]; 250 g ai/ha) | CASOB phytotoxicity rating (0-100 scale) [19, 29] | IPOHE phytotoxicity rating (0-100 scale) ([20]; 125 g ai/ha) | IPOHE phytotoxicity rating (0-100 scale) ([20]; 250 g ai/ha) | CHEAL phytotoxicity rating (0-100 scale) ([21]; 31.3 g ai/ha) | CHEAL phytotoxicity rating (0-100 scale) ([21]; 62.5 g ai/ha) | CHEAL phytotoxicity rating (0-100 scale) [21, 28] | CHEAL phytotoxicity rating (0-100 scale) [21, 29] | AMARE phytotoxicity rating (0-100 scale) ([23]; 62.5 g ai/ha) | AMARE phytotoxicity rating (0-100 scale) [23, 28] | AMARE phytotoxicity rating (0-100 scale) [23, 29] | ABUTH phytotoxicity rating (0-100 scale) ([24]; 125 g ai/ha) | ABUTH phytotoxicity rating (0-100 scale) ([24]; 250 g ai/ha)
8: CORN crop damage, phytotoxicity rating (0-100 scale) ([1]; 250 g ai/ha)
35: CASOB phytotoxicity rating (0-100 scale) ([19]; 31.3 g ai/ha)
80: RICE crop damage, phytotoxicity rating (0-100 scale) ([5]; 250 g ai/ha)
0: SOY crop damage, phytotoxicity rating (0-100 scale) ([4]; 125 g ai/ha)
65: SOY crop damage, phytotoxicity rating (0-100 scale) ([4]; 250 g ai/ha) | SOY crop damage, phytotoxicity rating (0-100 scale) ([16]; 125 g ai/ha) | AMBEL phytotoxicity rating (0-100 scale) [18, 28] | ECHCG phytotoxicity rating (0-100 scale) ([27]; 250 g ai/ha)
55: RICE crop damage, phytotoxicity rating (0-100 scale) ([5]; 125 g ai/ha) | SOY crop damage, phytotoxicity rating (0-100 scale) ([16]; 250 g ai/ha) | RICE crop damage, phytotoxicity rating (0-100 scale) ([17]; 250 g ai/ha) | DIGSA phytotoxicity rating (0-100 scale) ([25]; 250 g ai/ha)
5: corn phytotoxicity rating (0-100 scale) at 14 days [2]
7: CORN crop damage, phytotoxicity rating (0-100 scale) ([1]; 125 g ai/ha)
60: CASOB phytotoxicity rating (0-100 scale) ([7]; 125 g ai/ha) | AMBEL phytotoxicity rating (0-100 scale) ([18]; 62.5 g ai/ha) | SETVI phytotoxicity rating (0-100 scale) ([22]; 62.5 g ai/ha)
50: CORN crop damage, phytotoxicity rating (0-100 scale) ([3]; 250 g ai/ha) | RICE crop damage, phytotoxicity rating (0-100 scale) ([17]; 125 g ai/ha) | AMBEL phytotoxicity rating (0-100 scale) ([18]; 31.3 g ai/ha) | SETVI phytotoxicity rating (0-100 scale) ([22]; 31.3 g ai/ha) | DIGSA phytotoxicity rating (0-100 scale) ([25]; 125 g ai/ha)

— patent publication US6613718B2, “Aryl ether derivatives and processes for their preparation and herbicidal and desiccant compositions containing them” (Ishihara Sangyo Kaisha, Ltd., priority 2001, dated 2003)
